# The source made the active and inactive calls.
# Key:
# [1] = LGR2 antagonists, dose response, cell-based, HEK293, CRE-luciferase reporter, cherry pick, set 2 (AID 743343); type: functional;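 note: transfected cells were stimulated with diluted bursicon conditioned medium after compound addition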
# [2] = MC4R antagonists, dose response, counter-screen for LGR2 antagonist project, cell-based, plate reader, cherry pick (AID 743444); type: functional;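 note: transfected HEK 293 cells stimulated with alpha-MSH peptide; potency of inhibitors of the alpha-MSH evoked signal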
# [3] = target: T1, Long-chain-fatty-acid--AMP ligase FadD28 (Mycobacterium tuberculosis, UniProt P9WQ59); assay: Fluorescence polarization aasay to screen for inhibitors that compete for the binding of FadD28 to a bisubstrate Measured in Biochemical System Using Plate Reader - 2147-01_Inhibitor_Dose_CherryPick_Activity.; type: functional, Mycobacterium tuberculosis H37Rv
# T1 sequence (P9WQ59 whole entry): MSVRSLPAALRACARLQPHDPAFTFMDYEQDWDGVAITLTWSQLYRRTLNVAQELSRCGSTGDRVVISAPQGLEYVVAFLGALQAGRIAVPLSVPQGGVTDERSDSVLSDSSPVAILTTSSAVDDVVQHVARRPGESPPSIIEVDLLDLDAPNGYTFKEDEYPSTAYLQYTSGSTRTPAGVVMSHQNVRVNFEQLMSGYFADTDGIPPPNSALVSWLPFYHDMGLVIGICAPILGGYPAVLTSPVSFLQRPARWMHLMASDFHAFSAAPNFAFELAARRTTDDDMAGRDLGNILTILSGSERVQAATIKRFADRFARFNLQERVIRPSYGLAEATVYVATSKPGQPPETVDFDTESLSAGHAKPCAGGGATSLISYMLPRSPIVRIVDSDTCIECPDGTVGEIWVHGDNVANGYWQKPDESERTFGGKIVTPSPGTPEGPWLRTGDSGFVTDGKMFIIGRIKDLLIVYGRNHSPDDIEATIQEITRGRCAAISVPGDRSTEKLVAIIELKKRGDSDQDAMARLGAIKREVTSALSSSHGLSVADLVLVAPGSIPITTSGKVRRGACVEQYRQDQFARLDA
# [4] = target: T2, Rac GTPase-activating protein 1 (Homo sapiens, UniProt Q9H0H5); assay: MgcRacGAP GTPase-activating activity inhibitors, confirmation, biochemical, ADP Hunter fluorescence, primary and confirmatory (AID 624330); type: functional
# T2 sequence (Q9H0H5 whole entry): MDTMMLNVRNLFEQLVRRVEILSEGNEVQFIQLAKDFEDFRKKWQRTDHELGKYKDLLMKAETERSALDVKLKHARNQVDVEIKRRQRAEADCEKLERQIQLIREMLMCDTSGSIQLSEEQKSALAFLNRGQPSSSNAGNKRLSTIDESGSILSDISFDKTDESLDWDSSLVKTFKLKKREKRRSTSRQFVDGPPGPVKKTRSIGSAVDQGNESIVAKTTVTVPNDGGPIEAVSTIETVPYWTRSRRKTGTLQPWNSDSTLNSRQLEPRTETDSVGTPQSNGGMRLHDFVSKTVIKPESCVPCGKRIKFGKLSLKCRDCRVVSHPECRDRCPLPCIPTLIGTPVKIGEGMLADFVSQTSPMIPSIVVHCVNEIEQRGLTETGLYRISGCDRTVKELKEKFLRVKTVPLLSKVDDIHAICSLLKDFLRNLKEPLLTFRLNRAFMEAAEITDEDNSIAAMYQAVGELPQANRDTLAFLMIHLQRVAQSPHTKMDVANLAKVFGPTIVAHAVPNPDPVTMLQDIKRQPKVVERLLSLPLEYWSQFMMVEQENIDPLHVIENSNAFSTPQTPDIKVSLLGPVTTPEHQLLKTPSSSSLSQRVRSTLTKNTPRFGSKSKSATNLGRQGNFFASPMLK
# [5] = inhibitors of HIV Env-driven cell fusion, dose response, cherry-pick (AID 652057); type: functional, cell-based
# [6] = inhibitors of clade B AD8 Env fusion, dose response, cell-based, cherry-pick (AID 652062); type: functional;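 note: luciferase signal from cell-cell fusion driven by HIV-1 clade B AD8 Env; potency is for inhibitors of fusion seen as a drop in luminescence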
# cells [7] = type: functional, cell-based
# [8] = target: T3, Trace amine-associated receptor 1 (Homo sapiens, UniProt Q96RJ0); assay: Fluorescence-based cell-based high throughput dose response assay to identify agonists of the human trace amine associated receptor 1 (TAAR1).; type: functional
# T3 sequence (Q96RJ0 whole entry): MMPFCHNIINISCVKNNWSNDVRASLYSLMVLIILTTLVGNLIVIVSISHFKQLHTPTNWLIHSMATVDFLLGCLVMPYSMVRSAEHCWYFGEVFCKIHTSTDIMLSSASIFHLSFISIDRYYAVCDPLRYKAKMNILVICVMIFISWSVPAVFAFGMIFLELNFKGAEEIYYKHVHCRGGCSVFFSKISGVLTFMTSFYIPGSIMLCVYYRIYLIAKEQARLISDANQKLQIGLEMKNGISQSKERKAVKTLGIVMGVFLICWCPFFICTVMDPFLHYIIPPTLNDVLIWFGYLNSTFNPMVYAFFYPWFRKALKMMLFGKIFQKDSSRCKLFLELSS
# [9] = target: T3, Trace amine-associated receptor 1; assay: Counterscreen for agonists of the human trace amine associated receptor 1 (hTAAR1): Fluorescence-based cell-based high throughput dose response assay to identify hTAAR1 agonist that also desensitize TAAR1 receptor response.; type: functional
# cells [10] = type: functional, cell-based; remark: listed apart in the source
# [11] = target: T4, RNA-binding protein pos-1 (Caenorhabditis elegans, UniProt G5EF15); assay: inhibitors of POS-1/mex-3 RNA binding, dose response, biochemical, fluorescence polarization (AID 1964);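 note: purified POS-1 fused to maltose binding protein made in E. coli; potency of compounds blocking POS-1 binding to fluorescent RNA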
# T4 sequence (G5EF15 whole entry): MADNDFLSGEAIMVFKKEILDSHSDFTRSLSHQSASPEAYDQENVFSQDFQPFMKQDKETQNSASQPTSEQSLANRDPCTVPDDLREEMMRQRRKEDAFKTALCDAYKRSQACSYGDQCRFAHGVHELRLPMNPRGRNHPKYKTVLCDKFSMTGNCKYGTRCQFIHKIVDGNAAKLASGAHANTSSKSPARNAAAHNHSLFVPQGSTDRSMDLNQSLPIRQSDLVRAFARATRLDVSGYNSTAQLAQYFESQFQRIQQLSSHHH
# [12] = target: T5, Zinc finger protein mex-5 (Caenorhabditis elegans, UniProt Q9XUB2); assay: MEX-5/TCR-2 RNA interaction inhibitors, dose response, biochemical, C. elegans, fluorescence polarization (AID 1960)
# T5 sequence (Q9XUB2 whole entry): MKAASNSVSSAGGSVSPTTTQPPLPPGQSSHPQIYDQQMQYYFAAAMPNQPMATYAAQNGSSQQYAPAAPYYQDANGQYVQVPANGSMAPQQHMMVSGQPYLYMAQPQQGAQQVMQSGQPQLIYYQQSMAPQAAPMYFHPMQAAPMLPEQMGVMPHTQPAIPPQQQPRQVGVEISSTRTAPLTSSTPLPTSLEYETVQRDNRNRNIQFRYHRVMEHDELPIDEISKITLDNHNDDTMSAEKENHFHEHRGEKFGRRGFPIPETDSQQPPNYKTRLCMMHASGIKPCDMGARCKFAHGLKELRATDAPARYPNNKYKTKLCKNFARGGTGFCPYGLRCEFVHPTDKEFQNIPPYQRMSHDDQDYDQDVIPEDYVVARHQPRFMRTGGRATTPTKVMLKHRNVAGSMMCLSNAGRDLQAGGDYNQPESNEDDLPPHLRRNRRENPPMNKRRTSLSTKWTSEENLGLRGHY
# Protein skinhead-1 = target: T6, Protein skinhead-1 (Caenorhabditis elegans, UniProt P34707); type: functional
# T6 sequence (P34707 whole entry): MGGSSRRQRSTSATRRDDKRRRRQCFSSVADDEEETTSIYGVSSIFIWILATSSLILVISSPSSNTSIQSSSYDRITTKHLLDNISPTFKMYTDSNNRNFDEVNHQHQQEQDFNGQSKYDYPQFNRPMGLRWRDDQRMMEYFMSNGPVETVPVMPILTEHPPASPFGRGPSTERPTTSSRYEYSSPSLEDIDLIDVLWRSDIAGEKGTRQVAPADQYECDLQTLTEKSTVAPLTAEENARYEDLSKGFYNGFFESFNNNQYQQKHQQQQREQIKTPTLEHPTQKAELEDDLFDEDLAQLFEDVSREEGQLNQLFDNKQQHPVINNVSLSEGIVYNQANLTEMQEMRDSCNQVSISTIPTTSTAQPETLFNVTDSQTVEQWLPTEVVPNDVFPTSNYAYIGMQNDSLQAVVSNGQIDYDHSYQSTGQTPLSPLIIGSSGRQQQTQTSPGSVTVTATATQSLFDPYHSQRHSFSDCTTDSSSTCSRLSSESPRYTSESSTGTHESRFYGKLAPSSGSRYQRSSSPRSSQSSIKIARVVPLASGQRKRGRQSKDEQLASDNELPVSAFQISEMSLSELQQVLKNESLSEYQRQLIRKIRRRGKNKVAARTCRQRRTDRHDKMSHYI
# Genome polyprotein = Genome polyprotein (dengue virus type 2, UniProt P29990); assay: Dengue-2 NS5 methyltransferase inhibitors, primary screen, biochemical, confirmation dose response (AID 588689); type: functional
# Chain of Genome polyprotein (P29990 2492-3391 limits assumed): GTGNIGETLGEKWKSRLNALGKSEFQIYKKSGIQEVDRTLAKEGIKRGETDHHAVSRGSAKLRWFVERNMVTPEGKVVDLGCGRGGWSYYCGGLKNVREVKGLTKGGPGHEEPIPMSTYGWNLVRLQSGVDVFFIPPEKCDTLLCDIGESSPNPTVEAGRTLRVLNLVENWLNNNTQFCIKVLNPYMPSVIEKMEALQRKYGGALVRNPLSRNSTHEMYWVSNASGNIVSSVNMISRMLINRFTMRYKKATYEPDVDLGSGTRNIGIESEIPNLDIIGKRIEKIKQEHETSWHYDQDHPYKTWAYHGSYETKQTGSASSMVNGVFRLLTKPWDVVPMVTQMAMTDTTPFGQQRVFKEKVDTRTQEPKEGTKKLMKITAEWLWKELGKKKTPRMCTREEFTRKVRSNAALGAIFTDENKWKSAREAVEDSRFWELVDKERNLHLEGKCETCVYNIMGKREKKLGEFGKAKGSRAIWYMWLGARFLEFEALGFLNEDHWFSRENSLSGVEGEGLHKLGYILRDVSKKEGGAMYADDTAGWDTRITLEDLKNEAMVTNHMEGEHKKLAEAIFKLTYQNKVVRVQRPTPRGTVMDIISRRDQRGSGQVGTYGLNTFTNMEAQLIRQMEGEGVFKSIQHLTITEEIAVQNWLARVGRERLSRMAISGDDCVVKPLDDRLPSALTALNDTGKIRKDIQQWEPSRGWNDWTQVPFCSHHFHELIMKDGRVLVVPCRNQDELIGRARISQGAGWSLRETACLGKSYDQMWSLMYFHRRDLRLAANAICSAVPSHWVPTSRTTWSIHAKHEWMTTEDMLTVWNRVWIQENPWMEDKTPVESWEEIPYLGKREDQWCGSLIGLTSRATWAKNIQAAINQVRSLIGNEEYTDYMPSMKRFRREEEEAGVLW
# Paired box protein Pax-8 = Paired box protein Pax-8 (Homo sapiens, UniProt Q06710); assay: inhibitors of PAX8-driven TPO luciferase reporter, dose response, RMG-I cells, cherry-pick (AID 687027); type: functional, cell-based;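 note: luciferase reporter driven by Pax8 target thyroperoxidase promoter measured by SteadyGlo luminescence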
# Chain of Paired box protein Pax-8 (Q06710 whole entry): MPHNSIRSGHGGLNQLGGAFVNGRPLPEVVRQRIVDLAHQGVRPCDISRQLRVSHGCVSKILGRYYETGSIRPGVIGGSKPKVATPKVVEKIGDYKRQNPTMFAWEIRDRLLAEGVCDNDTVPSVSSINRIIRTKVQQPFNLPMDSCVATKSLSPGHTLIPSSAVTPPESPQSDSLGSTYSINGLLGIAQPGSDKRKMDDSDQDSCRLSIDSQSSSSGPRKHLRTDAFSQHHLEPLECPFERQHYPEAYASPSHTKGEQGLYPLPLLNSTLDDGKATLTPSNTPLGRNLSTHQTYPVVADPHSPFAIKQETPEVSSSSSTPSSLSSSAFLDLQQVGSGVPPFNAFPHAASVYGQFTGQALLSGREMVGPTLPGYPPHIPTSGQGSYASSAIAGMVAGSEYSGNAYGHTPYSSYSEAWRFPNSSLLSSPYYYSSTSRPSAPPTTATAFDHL
# [13] = target: T7, Mannose-6-phosphate isomerase (Homo sapiens, UniProt P34949); assay: human PMI inhibitors, high substrate, primary screen, biochemical, fluorescence intensity, high mannose 6-phosphate (AID 1220)
# T7 sequence (P34949 whole entry): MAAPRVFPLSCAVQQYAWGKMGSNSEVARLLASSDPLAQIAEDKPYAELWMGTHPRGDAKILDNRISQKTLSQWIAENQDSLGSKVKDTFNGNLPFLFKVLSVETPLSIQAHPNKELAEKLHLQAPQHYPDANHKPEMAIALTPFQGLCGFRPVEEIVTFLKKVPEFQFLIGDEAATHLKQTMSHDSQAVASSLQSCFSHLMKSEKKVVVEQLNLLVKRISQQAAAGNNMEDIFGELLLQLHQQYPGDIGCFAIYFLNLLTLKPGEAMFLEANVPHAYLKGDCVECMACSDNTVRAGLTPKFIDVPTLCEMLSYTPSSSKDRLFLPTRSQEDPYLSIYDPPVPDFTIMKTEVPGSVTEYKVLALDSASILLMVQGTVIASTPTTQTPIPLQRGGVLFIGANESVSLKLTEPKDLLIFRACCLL
# [14] = growth suppression of PTEN-null colon cells, dose response, cell-based, HCT116 PTEN knockout (AID 1047); type: functional;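 note: HCT116 colon tumor cells with PTEN knocked out; cells exposed to compound for 60 hours before readout; potency for loss of cell viability measured by luminescence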
# [15] = growth suppression of beta-catenin-knockout colon cells, dose response, cell-based, HCT116, human colon tumor (AID 1045); type: functional;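 note: HCT116 colon tumor cells with beta catenin knocked out; cells exposed to compound for 60 hours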
# [16] = Luminescence Cell-Based Dose Retest to Confirm Inhibitors of Cancer Stem Cells. [Related pubchem assays (depositor defined):AID2717, AID2721]; type: functional; conditions: Homo sapiens
# [17] = off-target signal loss in HeLa-CEM21 co-culture – HeLa F-luc CTL cells, cherry-picked, counter-screen for HIV-1 Env fusion inhibitor project, dose response (AID 652040); type: functional, cell-based;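 note: potency for signal decrease marking cytotoxic or nonspecific inhibition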
smiles,measurement,setting,value
Cc1ccc(-c2cc(C(=O)N3CCOCC3)no2)cc1,AC50,[1],2.95 µM (active)
same,AC50,[2],2.81 µM (active)
O=C(CSc1nc(O)cc(=O)n1-c1ccccc1)Nc1nc2ccccc2s1,AC50,[3],32 µM (active)
C=CCc1cc(C)ccc1OCCCn1ccnc1,IC50,[4],127 µM (active)
COc1cccc(S(=O)(=O)N(C)C[C@@H]2Oc3cc(C#CCC(C)C)ccc3S(=O)(=O)N([C@H](C)CO)C[C@@H]2C)c1,AC50,[5],20.1 µM (active)
same,AC50,[6],17.9 µM (active)
COc1cccc(NC(=O)Cn2c(=O)oc3ccccc32)c1,AC50,[3],8.71 µM (active)
O=C(NCCc1ccccc1)c1ccc(CS(=O)(=O)Cc2ccccc2F)o1,IC50,cells [7],17.7 µM (inactive)
same,EC50,[8],2.78 µM (active)
same,IC50,[9],5.69 µM (active)
same,EC50,cells [10],> 29.9 µM (inactive)
COc1cc(/C=N/NC(=O)CNC(=O)c2ccc3c(c2)OCCO3)ccc1O,IC50,[4],54.9 µM (active)
Cc1cccc(NC2=NCC(=O)N2CCc2ccccc2)c1,IC50,cells [7],> 29.9 µM (inactive)
same,EC50,[8],0.866 µM (active)
same,IC50,[9],7.06 µM (active)
same,EC50,cells [10],> 29.9 µM (inactive)
CCCn1c(O)c(C#N)c(C)c(CN2CCCC(C)C2)c1=O (stereo unspecified),EC50,[11],> 300 µM (inconclusive)
same,EC50,[12],6.59 µM (active)
same,IC50,cells [7],> 29.9 µM (inactive)
same,EC50,[8],3.04 µM (active)
same,IC50,[9],13 µM (inactive)
same,EC50,cells [10],> 29.9 µM (inactive)
O=C(Nc1ccc2oc(-c3ccccc3)nc2c1)c1cccnc1,IC50,Protein skinhead-1,> 100 µM (inactive)
Cc1nc(NCCc2ccccc2)c2nnn(Cc3ccccc3Cl)c2n1,IC50,cells [7],> 29.9 µM (inactive)
same,EC50,[8],0.59 µM (active)
same,IC50,[9],3.51 µM (active)
same,EC50,cells [10],> 29.9 µM (inactive)
c1ccc(-c2csc(-c3cccnc3)n2)cc1,IC50,Protein skinhead-1,40.4 µM (active)
NC(=O)C1CCN(c2oc(-c3ccccc3F)nc2S(=O)(=O)c2ccc(Cl)cc2)CC1,IC50,Protein skinhead-1,> 100 µM (inactive)
O=c1c(-c2ccc(O)cc2)coc2cc(O)ccc12 [DAIDZEIN],IC50,[4],91.3 µM (active)
COc1ccc2c(c1)Cc1cc(NC(=O)c3ccccc3-c3ccccc3C(=O)O)ccc1-2,IC50,Genome polyprotein,46.3 µM (active)
same,AC50,[3],89.9 µM (active)
C=CCSc1nnc2c(n1)-c1cccc3cccc-2c13,IC50,Protein skinhead-1,18.2 µM (active)
CC(C)(C)N(Cc1ccc2c(c1)OCO2)C(=O)/C=C\[S+]([O-])c1ccccc1 (stereo unspecified),IC50,[4],125 µM (active)
same,AC50,Paired box protein Pax-8,6.14 µM (active)
COc1ccc(O)c(/C=N/c2sc(C)c(C)c2C#N)c1,IC50,[13],> 50 µM (not active)
Cc1cccc(-c2cc3nc(C)cc(N4CC(C)CC(C)C4)n3n2)c1 (stereo unspecified),EC50,[14],27.8 µM (active)
same,EC50,[15],43.9 µM (active)
same,AC50,[16],5.01 µM (active)
same,IC50,cells [7],> 29.9 µM (inactive)
same,EC50,[8],7.1 µM (active)
same,IC50,[9],> 29.9 µM (inactive)
same,EC50,cells [10],> 29.9 µM (inactive)
COc1ccc(C(=O)OCC(=O)c2ccccc2)cc1S(=O)(=O)N1CCOCC1,AC50,[3],> 100 µM (inactive)
C=CCn1c(SCC(=O)c2c(N)n(C)c(=O)n(C)c2=O)nnc1-c1ccoc1C,IC50,Protein skinhead-1,> 100 µM (inactive)
NC(Cc1ccc(F)cc1)c1csc(Nc2ccc(S(N)(=O)=O)cc2)n1 (stereo unspecified),IC50,cells [7],> 29.9 µM (inactive)
same,EC50,[8],5.18 µM (active)
same,IC50,[9],> 29.9 µM (inactive)
same,EC50,cells [10],> 29.9 µM (inactive)
Cn1c(=O)oc2cc(S(=O)(=O)NCc3ccncc3)ccc21,AC50,[17],58.5 µM (active)
same,AC50,[6],17.4 µM (active)

# Source: ChEMBL document CHEMBL1201862, “PubChem BioAssay data set” (2004)
